Calls of active or inactive are those of the source. The rule behind the calls is not given here.
Legend:
A549 = assay: Anticancer activity against human A549 cells by MTT assay; assay type: functional, cell-based
A-375 = assay: Anticancer activity against human A375 cells by MTT assay; assay type: functional, cell-based
ME-180 [1] = assay: Anticancer activity against human ME180 cells by MTT assay; assay type: functional, cell-based
DU-145 = assay: Anticancer activity against human DU145 cells by MTT assay; assay type: functional, cell-based
ME-180 [2] = assay: Induction to apoptosis in human ME180 cells assessed as increase in caspase-3 activity at 1 uM for 48 hrs relative to control; assay type: functional
ME-180 [3] = assay: Cell cycle arrest in human ME180 cells assessed as accumulation at G2/M phase at 0.5 uM after 48 hrs by FACS analysis (reference value: 13.2%); assay type: functional
ME-180 [4] = assay: Induction of apoptosis in human ME180 cells assessed as DNA fragmentation at 1 uM after 48 hrs; assay type: functional, cell-based
ME-180 [5] = assay: Cell cycle arrest in human ME180 cells assessed as accumulation at G1 phase at 0.5 uM after 48 hrs by FACS analysis (reference value: 59.9%); assay type: functional
ME-180 [6] = assay: Induction of apoptosis in human ME180 cells assessed as late apoptotic cells at 1 uM for 24 hrs by annexin V/PI staining based flow cytometry (reference value: 5%); assay type: functional
ME-180 [7] = assay: Cell cycle arrest in human ME180 cells assessed as accumulation at SubG1 phase at 1 uM after 48 hrs by FACS analysis (reference value: 7.0%); assay type: functional
ME-180 [8] = assay: Cell cycle arrest in human ME180 cells assessed as accumulation at G2/M phase at 1 uM after 48 hrs by FACS analysis (reference value: 13.2%); assay type: functional
ME-180 [9] = assay: Induction of apoptosis in human ME180 cells assessed as presence of apoptotic bodies at 1 uM for 24 hrs by Hoechst staining analysis; assay type: functional, cell-based
ME-180 [10] = assay: Induction of apoptosis in human ME180 cells assessed as mitochondrial membrane depolarization at 1 uM for 24 hrs by using JC-1 dye; assay type: functional, cell-based
ME-180 [11] = assay: Cell cycle arrest in human ME180 cells assessed as accumulation at G1 phase at 1 uM after 48 hrs by FACS analysis (reference value: 59.9%); assay type: functional
ME-180 [12] = assay: Induction of apoptosis in human ME180 cells assessed as early apoptotic cells at 1 uM for 24 hrs by annexin V/PI staining based flow cytometry (reference value: 0.2%); assay type: functional
ME-180 [13] = assay: Cell cycle arrest in human ME180 cells assessed as accumulation at S phase at 0.5 uM after 48 hrs by FACS analysis (reference value: 19.3%); assay type: functional
ME-180 [14] = assay: Induction of apoptosis in human ME180 cells assessed as necrotic cells at 1 uM for 24 hrs by annexin V/PI staining based flow cytometry (reference value: 11.7%); assay type: functional
ME-180 [15] = assay: Induction of apoptosis in human ME180 cells assessed as viable cells at 1 uM for 24 hrs by annexin V/PI staining based flow cytometry (reference value: 83.1%); assay type: functional; conditions: ME-180, 24 h, read-out: Activity
ME-180 [16] = assay: Induction of apoptosis in human ME180 cells assessed as cytoplasmic condensation at 1 uM for 24 hrs by Hoechst staining analysis; assay type: functional, cell-based
ME-180 [17] = assay: Cell cycle arrest in human ME180 cells assessed as accumulation at S phase at 1 uM after 48 hrs by FACS analysis (reference value: 19.3%); assay type: functional
ME-180 [18] = assay: Induction of apoptosis in human ME180 cells assessed as nuclear fragmentation at 1 uM for 24 hrs by Hoechst staining analysis; assay type: functional, cell-based
ME-180 [19] = assay: Cell cycle arrest in human ME180 cells assessed as accumulation at SubG1 phase at 0.5 uM after 48 hrs by FACS analysis (reference value: 7.0%); assay type: functional
ME-180 [20] = assay: Cell cycle arrest in human ME180 cells assessed as accumulation at G2/M phase at <1 uM; assay type: functional, cell-based

Row | SMILES | IC50 (A549) | IC50 (A-375) | IC50 (ME-180 [1]) | IC50 (DU-145) | also measured
1 | Cc1nn2c(-c3nc4cc(Cl)ccc4[nH]3)c(-c3ccc(F)cc3)nc2s1 | 10.2 µM | 4.8 µM | 1.9 µM | 14.4 µM | 
2 | Cc1nn2c(-c3nc4cc(Cl)c(F)cc4[nH]3)c(-c3ccccc3)nc2s1 | 16.4 µM | 20.8 µM | 16.9 µM | > 30 µM | 
3 | COc1ccc(-c2nc3sc(C)nn3c2-c2nc3cc(Cl)c(F)cc3[nH]2)cc1 | 17.9 µM | 6.8 µM | 4.6 µM | > 30 µM | 
4 | Cc1nn2c(-c3nc4cc(C(F)(F)F)ccc4[nH]3)c(-c3ccc(F)cc3)nc2s1 | 12.7 µM | 7.3 µM | 5.8 µM | 15.8 µM | 
5 | Cc1ccc(-c2nc3sc(C)nn3c2-c2nc3cc(Cl)c(F)cc3[nH]2)cc1 | 10.3 µM | 1.04 µM | 0.7 µM | 11.8 µM | fold change (FC) (ME-180 [2]): 3; Activity (ME-180 [3]): 6.7%; Activity (ME-180 [4]): Active; Activity (ME-180 [5]): 66.6%; Activity (ME-180 [6]): 16.5%; Activity (ME-180 [7]): 11.6%; Activity (ME-180 [8]): 2.3%; Activity (ME-180 [9]): Active; Activity (ME-180 [10]): Active; Activity (ME-180 [11]): 75.7%; Activity (ME-180 [12]): 0.8%; Activity (ME-180 [13]): 12.3%; Activity (ME-180 [14]): 9.6%; viability at 1 µM (ME-180 [15]): 73.1%; Activity (ME-180 [16]): Active; Activity (ME-180 [17]): 10.1%; Activity (ME-180 [18]): Active; Activity (ME-180 [19]): 14.1%
6 | Cc1nn2c(-c3nc4cc(C)c(C)cc4[nH]3)c(-c3ccc(F)cc3)nc2s1 | > 30 µM | 7.6 µM | 6.1 µM | > 30 µM | 
7 | Cc1ccc(-c2nc3sc(C)nn3c2-c2nc3c(C)c(C)ccc3[nH]2)cc1 | 10.3 µM | 11.4 µM | 9.7 µM | 12.5 µM | 
8 | Cc1nn2c(-c3nc4ccccc4[nH]3)c(-c3ccccc3)nc2s1 | 16.6 µM | 19.9 µM | 16.9 µM | > 30 µM | 
9 | Cc1nn2c(-c3nc4cc(C)c(C)cc4[nH]3)c(-c3ccccc3)nc2s1 | > 30 µM | 22.5 µM | 19.9 µM | 19.8 µM | 
10 | Cc1nn2c(-c3nc4ccccc4[nH]3)c(-c3ccc(F)cc3)nc2s1 | > 30 µM | 22.2 µM | 18.1 µM | > 30 µM | 
11 | COC(=O)Nc1nc2cc(C(=O)c3cccs3)ccc2[nH]1 [NOCODAZOLE] | 2.5 µM | 0.2 µM | 1.7 µM | 2.1 µM | 
12 | Cc1nn2c(-c3nc4cc(O)ccc4[nH]3)c(-c3ccccc3)nc2s1 | 19.4 µM | 19.1 µM | 16.4 µM | 20.6 µM | 
13 | COc1cccc2c1C(=O)c1c(O)c3c(c(O)c1C2=O)C[C@@](O)(C(=O)CO)C[C@@H]3O[C@H]1C[C@H](N)[C@H](O)[C@H](C)O1 [DOXORUBICIN] | 1.1 µM | 1.2 µM | 0.5 µM | 2.4 µM | fold change (FC) (ME-180 [2]): 3; Activity (ME-180 [4]): Active; Activity (ME-180 [6]): 15.1%; Activity (ME-180 [7]): 7.7%; Activity (ME-180 [8]): 10.9%; Activity (ME-180 [11]): 64.8%; Activity (ME-180 [12]): 0.7%; Activity (ME-180 [14]): 16.8%; viability at 1 µM (ME-180 [15]): 67.5%; Activity (ME-180 [20]): Active; Activity (ME-180 [17]): 16.1%
14 | Cc1nn2c(-c3nc4cc(F)ccc4[nH]3)c(-c3ccccc3)nc2s1 | > 30 µM | 18.1 µM | 15.7 µM | 16.9 µM | 
15 | Cc1nn2c(-c3nc4cc(Cl)c(Cl)cc4[nH]3)c(-c3ccccc3)nc2s1 | 13.6 µM | 2.8 µM | 0.5 µM | 19.1 µM | fold change (FC) (ME-180 [2]): 3; Activity (ME-180 [3]): 10.4%; Activity (ME-180 [4]): Active; Activity (ME-180 [5]): 68.1%; Activity (ME-180 [6]): 22.6%; Activity (ME-180 [7]): 16.3%; Activity (ME-180 [8]): 1.6%; Activity (ME-180 [9]): Active; Activity (ME-180 [10]): Active; Activity (ME-180 [11]): 72.4%; Activity (ME-180 [12]): 1%; Activity (ME-180 [13]): 15.7%; Activity (ME-180 [14]): 17.7%; viability at 1 µM (ME-180 [15]): 58.7%; Activity (ME-180 [16]): Active; Activity (ME-180 [17]): 9.3%; Activity (ME-180 [18]): Active; Activity (ME-180 [19]): 5.4%
16 | Cc1ccc(-c2nc3sc(C)nn3c2-c2nc3cc(Cl)ccc3[nH]2)cc1 | 4.4 µM | 5.01 µM | 3.6 µM | 7.3 µM | 
17 | COc1ccc(-c2nc3sc(C)nn3c2-c2nc3cc(C)ccc3[nH]2)cc1 | 18.4 µM | 10.9 µM | 8.7 µM | 25.1 µM | 
18 | Cc1ccc2[nH]c(-c3c(-c4ccccc4)nc4sc(C)nn34)nc2c1 | 12.5 µM | 20.4 µM | 15.8 µM | 14.4 µM | 
19 | Cc1nn2c(-c3nc4cc(Cl)c(F)cc4[nH]3)c(-c3ccc(F)cc3)nc2s1 | > 30 µM | 17.7 µM | 13.9 µM | > 30 µM | 
20 | COc1ccc(-c2nc3sc(C)nn3c2-c2nc3cc(C)c(C)cc3[nH]2)cc1 | 16.5 µM | 12.5 µM | 12.3 µM | 23.3 µM | 
21 | Cc1nn2c(-c3nc4cc(Cl)c(Cl)cc4[nH]3)c(-c3ccc(F)cc3)nc2s1 | > 30 µM | 14.2 µM | 10 µM | > 30 µM | 
22 | Cc1nn2c(-c3nc4cc(Cl)ccc4[nH]3)c(-c3ccccc3)nc2s1 | 16.9 µM | 7.7 µM | 5.4 µM | 25.1 µM | 
23 | COc1ccc(-c2nc3sc(C)nn3c2-c2nc3c(C)c(C)ccc3[nH]2)cc1 | 16.2 µM | 5.8 µM | 3.7 µM | 14.2 µM | 
24 | Cc1ccc(-c2nc3sc(C)nn3c2-c2nc3cc(C)ccc3[nH]2)cc1 | 9.8 µM | 6.1 µM | 4.5 µM | 10.7 µM | 
25 | Cc1nn2c(-c3nc4c(C)c(C)ccc4[nH]3)c(-c3ccccc3)nc2s1 | 18.4 µM | 22.9 µM | 15.8 µM | > 30 µM | 
26 | Cc1ccc2[nH]c(-c3c(-c4ccc(F)cc4)nc4sc(C)nn34)nc2c1 | 11.7 µM | 7.7 µM | 6.6 µM | 19.9 µM | 
27 | Cc1nn2c(-c3nc4cc(C(F)(F)F)ccc4[nH]3)c(-c3ccccc3)nc2s1 | 13.6 µM | 5.2 µM | 3.9 µM | 19.6 µM | 
28 | COc1ccc(-c2nc3sc(C)nn3c2-c2nc3cc(Cl)ccc3[nH]2)cc1 | 7.9 µM | 4.3 µM | 2.6 µM | 15.8 µM | 

From ChEMBL document CHEMBL3621145, “Synthesis of imidazothiadiazolebenzimidazole conjugates as mitochondrial apoptosis inducers” (Medchemcomm, 2014)
